We go through 20 molecules from US20140107109A1, “AMINO-DIHYDROTHIAZINE AND AMINO-DIOXIDO DIHYDROTHIAZINE COMPOUNDS AS BETA-SECRETASE ANTAGONISTS AND METHODS OF USE” (Amgen Inc., priority 2012, published 2014).

Molecules are shown by their SMILES. pIC50: −log10 of the molar value.

Test [1] addresses Beta Secretase enzyme (BACE1) (Homo sapiens, UniProt P56817). The test is described as follows: In vitro enzymatic BACE FRET assay. Type of test: biochemical. To be noted: average IC50, enzyme assay; read-out: BACE1 FRET assay IC50. Put shortly:
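BACE1 cleavage of a 50 nM fluorophore/quencher peptide FRET substrate ran for one hour in 0.05 M acetate pH 4.2, 10% DMSO, 100 uM genapol. Tris buffer raised pH to neutrality to stop the reaction before fluorescence was read (excitation 488 nm, […]).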

Test [2] deals with Aβ40 in conditioned medium of cells stably expressing Amyloid Precursor Protein (APP). The test is described as follows: In vitro BACE cell-based assay (HEK cell assay), Aβ40 sandwich ELISA. To be noted: Homo sapiens, HEK293; average IC50, HEK cell assay. Put shortly:
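APP-stably expressing cells (40K/well, grown 24 h in DMEM/10% FBS) were treated 24 h with compounds in 10-point dose response starting at 100 μM or 10 μM, 0.1% DMSO final. Secreted Aβ40 was measured by sandwich ELISA (pAb40 capture, biotinylated 6E10 detection, europium time-resolved fluorescence); IC50 from percent inhibition.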

A further test has as its target T1, Cathepsin D (Cat D) (Homo sapiens, UniProt P07339).
T1 construct: Recombinant Cat D was expressed in CHO cells; made in house; host or cells: CHO cells
In words: In vitro enzymatic Cathepsin D (Cat D) FRET assay. The format is biochemical. To be noted: read-out: CatD IC50. In outline:
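Recombinant Cat D expressed in CHO cells, used at 9 nM and pre-incubated one hour with serially diluted inhibitor in DMSO. Peptide substrate carries a fluorophore and quencher flanking the cleavage site; reaction stopped with Tris buffer raising pH to neutrality, then fluorescence read.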

T1 sequence (P07339 65-412, species assumed): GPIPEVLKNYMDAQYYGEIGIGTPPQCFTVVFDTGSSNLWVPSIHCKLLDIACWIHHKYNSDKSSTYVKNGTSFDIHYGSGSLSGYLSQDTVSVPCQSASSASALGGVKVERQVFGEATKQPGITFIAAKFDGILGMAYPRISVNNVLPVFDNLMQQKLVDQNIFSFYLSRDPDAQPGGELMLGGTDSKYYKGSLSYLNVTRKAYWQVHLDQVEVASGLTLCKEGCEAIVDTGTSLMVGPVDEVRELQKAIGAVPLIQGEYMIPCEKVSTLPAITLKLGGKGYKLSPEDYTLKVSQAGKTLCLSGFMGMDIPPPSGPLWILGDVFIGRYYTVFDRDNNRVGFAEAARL
Beta Secretase enzyme (BACE1), sequence (P56817 46-501): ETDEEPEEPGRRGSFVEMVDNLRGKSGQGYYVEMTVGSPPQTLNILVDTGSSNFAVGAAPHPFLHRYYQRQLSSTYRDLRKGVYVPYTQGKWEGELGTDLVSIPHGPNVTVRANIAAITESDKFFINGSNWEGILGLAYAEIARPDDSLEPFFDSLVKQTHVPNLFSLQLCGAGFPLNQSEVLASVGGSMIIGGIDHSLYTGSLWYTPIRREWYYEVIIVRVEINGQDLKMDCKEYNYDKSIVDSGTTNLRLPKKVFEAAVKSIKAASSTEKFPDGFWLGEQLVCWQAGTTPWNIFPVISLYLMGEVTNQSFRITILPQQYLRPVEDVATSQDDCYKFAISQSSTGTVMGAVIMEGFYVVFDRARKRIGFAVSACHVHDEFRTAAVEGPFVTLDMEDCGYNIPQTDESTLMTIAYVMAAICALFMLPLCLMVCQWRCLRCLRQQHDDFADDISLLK

In the case of `C[C@]1(F)C(N)=N[C@](C)(c2cc(NC(=O)c3cnc(C(F)(F)F)cn3)ccc2F)CS1(=O)=O` [Example 323, N-(3-((3R,6R)-5-amino-6-fluoro-3,6-dimethyl-1,1-dioxido-3,6-dihydro-2H-1,4-thiazin-3-yl)-4-fluorophenyl)-5-(trifluoromethyl)-2-pyrazinecarboxamide], the pIC50 is 8.41 in test [1], 6.54 in test [2] and 3.03 on Cathepsin D (Cat D).

In the case of `Cc1cc(C#N)cnc1C(=O)Nc1ccc(F)c([C@]2(C)CS(=O)(=O)[C@@](C)(F)C(N)=N2)c1` [Example 324, N-(3-((3R,6R)-5-amino-6-fluoro-3,6-dimethyl-1,1-dioxido-3,6-dihydro-2H-1,4-thiazin-3-yl)-4-fluorophenyl)-5-cyano-3-methyl-2-pyridinecarboxamide], the pIC50 was 8.99 in test [1], 7.19 in test [2] and 2.86 at Cathepsin D (Cat D).

As to `C[C@]1(F)C(N)=N[C@](C)(c2cc(NC(=O)c3cnc(OCC(F)(F)F)cn3)ccc2F)CS1(=O)=O` [Example 325, N-(3-((3R,6R)-5-amino-6-fluoro-3,6-dimethyl-1,1-dioxido-3,6-dihydro-2H-1,4-thiazin-3-yl)-4-fluorophenyl)-5-(2,2,2-trifluoroethoxy)-2-pyrazinecarboxamide], the pIC50 in test [1] was 9.38; in test [2], 7.35; on Cathepsin D (Cat D) it was 2.90.

For the molecule `C[C@]1(F)C(N)=N[C@](C)(c2cc(NC(=O)c3ncc(C(F)F)cc3Cl)ccc2F)CS1(=O)=O` [Example 326, N-(3-((3R,6R)-5-amino-6-fluoro-3,6-dimethyl-1,1-dioxido-3,6-dihydro-2H-1,4-thiazin-3-yl)-4-fluorophenyl)-3-chloro-5-(difluoromethyl)-2-pyridinecarboxamide], the negative-log IC50 (pIC50) in test [1] is 8.56; in test [2] it was 7.22; on Cathepsin D (Cat D) it was 3.01.

Regarding `C[C@]1(F)C(N)=N[C@](C)(c2cc(NC(=O)c3ncc(C#N)cc3Cl)ccc2F)CS1(=O)=O` [Example 327, N-(3-((3R,6R)-5-amino-6-fluoro-3,6-dimethyl-1,1-dioxido-3,6-dihydro-2H-1,4-thiazin-3-yl)-4-fluorophenyl)-3-chloro-5-cyano-2-pyridinecarboxamide], the figures for the pIC50 (in test [1]; in test [2]; at Cathepsin D (Cat D)) were 9.13, 7.69 and less than 3.40, respectively.

On to `COCc1cc(Cl)cnc1C(=O)Nc1ccc(F)c([C@]2(C)CS(=O)(=O)[C@@](C)(F)C(N)=N2)c1` [Example 328, N-(3-((3R,6R)-5-amino-6-fluoro-3,6-dimethyl-1,1-dioxido-3,6-dihydro-2H-1,4-thiazin-3-yl)-4-fluorophenyl)-5-chloro-3-(methoxymethyl)-2-pyridinecarboxamide], for which the negative-log IC50 (pIC50) was 9.29 in test [1], 7.03 in test [2] and 3.22 at Cathepsin D (Cat D).

With `CC1(C)C(N)=N[C@](C)(c2cc(NC(=O)c3ncc(Cl)cc3F)ccc2F)C(F)S1(=O)=O` (stereo partly drawn) [Example 329, N-(3-((3R)-5-amino-2-fluoro-3,6,6-trimethyl-1,1-dioxido-3,6-dihydro-2H-1,4-thiazin-3-yl)-4-fluorophenyl)-5-chloro-3-fluoro-2-pyridinecarboxamide], the pIC50 is 9.33 in test [1], 8.24 in test [2] and less than 3.40 at Cathepsin D (Cat D).

For `Cc1cc(OC(F)F)cnc1C(=O)Nc1ccc(F)c([C@@]2(C)N=C(N)C(C)(C)S(=O)(=O)C2F)c1` (stereo partly drawn) [Example 330, N-(3-((3R)-5-amino-2-fluoro-3,6,6-trimethyl-1,1-dioxido-3,6-dihydro-2H-1,4-thiazin-3-yl)-4-fluorophenyl)-5-(difluoromethoxy)-3-methyl-2-pyridinecarboxamide], the results for the pIC50 (in test [1]; in test [2]; on Cathepsin D (Cat D)) were 9.12, 8.39 and 3.87, respectively.

For `Cc1cc(Cl)cnc1C(=O)Nc1ccc(F)c([C@@]2(C)N=C(N)C(C)(C)S(=O)(=O)C2F)c1` (stereo partly drawn) [Example 331, N-(3-((3R)-5-amino-2-fluoro-3,6,6-trimethyl-1,1-dioxido-3,6-dihydro-2H-1,4-thiazin-3-yl)-4-fluorophenyl)-5-chloro-3-methyl-2-pyridinecarboxamide], the negative logarithm of the IC50 (pIC50) in test [1] is 9.52; in test [2], 8.32; at Cathepsin D (Cat D), 3.73.

In the case of `CC#CCOc1cnc(C(=O)Nc2ccc(F)c([C@@]3(C)N=C(N)C(C)(C)S(=O)(=O)C3F)c2)cn1` (stereo partly drawn) [Example 332, N-(3-((3R)-5-amino-2-fluoro-3,6,6-trimethyl-1,1-dioxido-3,6-dihydro-2H-1,4-thiazin-3-yl)-4-fluorophenyl)-5-(2-butyn-1-yloxy)-2-pyrazinecarboxamide], the negative-log IC50 (pIC50) in test [1] was 9.64; in test [2], 9.00; on Cathepsin D (Cat D), 4.35.

On to `CC1(C)C(N)=N[C@](C)(c2cc(NC(=O)c3cnc(OCC(F)(F)F)cn3)ccc2F)C(F)S1(=O)=O` (stereo partly drawn) [Example 333, N-(3-((3R)-5-amino-2-fluoro-3,6,6-trimethyl-1,1-dioxido-3,6-dihydro-2H-1,4-thiazin-3-yl)-4-fluorophenyl)-5-(2,2,2-trifluoroethoxy)-2-pyrazinecarboxamide], for which the results for the pIC50 (in test [1]; in test [2]; on Cathepsin D (Cat D)) were 8.82, 7.80 and 3.72, respectively.

`CC1(C)C(N)=N[C@](C)(c2cc(NC(=O)c3ccc(C(F)F)cn3)ccc2F)C(F)S1(=O)=O` (stereo partly drawn) [Example 334, N-(3-((3R)-5-amino-2-fluoro-3,6,6-trimethyl-1,1-dioxido-3,6-dihydro-2H-1,4-thiazin-3-yl)-4-fluorophenyl)-5-(difluoromethyl)-2-pyridinecarboxamide]: the pIC50 in test [1] was 8.62; in test [2], 8.26; at Cathepsin D (Cat D) it was 3.51.

Consider `COCc1cc(Cl)cnc1C(=O)Nc1ccc(F)c([C@@]2(C)N=C(N)C(C)(C)S(=O)(=O)C2F)c1` (stereo partly drawn) [Example 335, N-(3-((3R)-5-amino-2-fluoro-3,6,6-trimethyl-1,1-dioxido-3,6-dihydro-2H-1,4-thiazin-3-yl)-4-fluorophenyl)-5-chloro-3-(methoxymethyl)-2-pyridinecarboxamide], for which the pIC50 in test [1] was 9.25; in test [2], 8.17; at Cathepsin D (Cat D) it was 3.51.

As to `COc1cnc(C(=O)Nc2ccc(F)c([C@@]3(C)N=C(N)C(C)(C)S(=O)(=O)C3F)c2)c(Cl)c1` (stereo partly drawn) [Example 336, N-(3-((3R)-5-amino-2-fluoro-3,6,6-trimethyl-1,1-dioxido-3,6-dihydro-2H-1,4-thiazin-3-yl)-4-fluorophenyl)-3-chloro-5-methoxy-2-pyridinecarboxamide], the pIC50 in test [1] is 8.85; in test [2] it was 8.28; on Cathepsin D (Cat D) it was 3.27.

Take `COc1cnc(C(=O)Nc2ccc(F)c([C@@]3(C)N=C(N)C(C)(C)S(=O)(=O)C3F)c2)c(C)c1` (stereo partly drawn) [Example 337, N-(3-((3R)-5-amino-2-fluoro-3,6,6-trimethyl-1,1-dioxido-3,6-dihydro-2H-1,4-thiazin-3-yl)-4-fluorophenyl)-5-methoxy-3-methyl-2-pyridinecarboxamide]: the values for the pIC50 (in test [1]; in test [2]; at Cathepsin D (Cat D)) were 8.50, 8.01 and 3.63, respectively.

Take `CC1[C@@](C)(c2cc(NC(=O)c3ccc(Cl)cn3)ccc2F)N=C(N)[C@](C)(F)S1(=O)=O` (stereo partly drawn) [Example 339, N-(3-((3R,6R)-5-amino-6-fluoro-2,3,6-trimethyl-1,1-dioxido-3,6-dihydro-2H-1,4-thiazin-3-yl)-4-fluorophenyl)-5-chloro-2-pyridinecarboxamide]: the negative logarithm of the IC50 (pIC50) is 7.74 in test [1], 6.71 in test [2] and 3.96 on Cathepsin D (Cat D).

As to `Cc1cc(Cl)cnc1C(=O)Nc1ccc(F)c([C@@]2(C)N=C(N)C(C)(C)S(=O)(=O)C23CC3)c1` [Example 340, N-(3-((8R)-6-amino-5,5,8-trimethyl-4,4-dioxido-4-thia-7-azaspiro[2.5]oct-6-en-8-yl)-4-fluorophenyl)-5-chloro-3-methyl-2-pyridinecarboxamide], the results for the pIC50 (in test [1]; in test [2]; at Cathepsin D (Cat D)) were 8.29, 8.36 and 4.70, respectively.

Regarding `Cc1cc(OC(F)F)cnc1C(=O)Nc1ccc(F)c([C@@]2(C)N=C(N)C(C)(C)S(=O)(=O)C23CC3)c1` [Example 341, N-(3-((8R)-6-amino-5,5,8-trimethyl-4,4-dioxido-4-thia-7-azaspiro[2.5]oct-6-en-8-yl)-4-fluorophenyl)-5-(difluoromethoxy)-3-methyl-2-pyridinecarboxamide], the negative logarithm of the IC50 (pIC50) in test [1] was 8.22; in test [2] it was 8.62; at Cathepsin D (Cat D) it was 5.03.

For the molecule `CC1(C)C(N)=N[C@](C)(c2cc(NC(=O)c3ccc(C(F)(F)F)cn3)ccc2F)CS1(=O)=O` [Example 342, N-(3-((3R)-5-amino-3,6,6-trimethyl-1,1-dioxido-3,6-dihydro-2H-1,4-thiazin-3-yl)-4-fluorophenyl)-5-(trifluoromethyl)-2-pyridinecarboxamide], the pIC50 was 9.21 in test [1], 9.15 in test [2] and 3.95 at Cathepsin D (Cat D).

With `CC1(C)C(N)=N[C@](C)(c2cc(NC(=O)c3cc4ccccc4cn3)ccc2F)CS1(=O)=O` [Example 343, N-(3-((3R)-5-amino-3,6,6-trimethyl-1,1-dioxido-3,6-dihydro-2H-1,4-thiazin-3-yl)-4-fluorophenyl)-3-isoquinolinecarboxamide], the negative logarithm of the IC50 (pIC50) in test [1] was 8.29; in test [2], 7.97; at Cathepsin D (Cat D), 3.63.
